The target in one experiment is human MEK1 (Homo sapiens, UniProt Q02750). The experiment can be described thus: MEK-1 Enzyme Assay (LANCE-HTRF). It counts as biochemical. The conditions noted are these: 100 nM MEK1, 15 μM ATP, 300 nM ERK2, two hours; read-out: MEK inhibition. The procedure:
Assay 1: MEK-1 Enzyme Assay (LANCE-HTRF)
The activity of the compounds of the present invitation may be determined by the following procedure; Inhibition of human MEK1 kinase activity was monitored with a homogenous, fluorescence based assay. The assay uses time resolved fluorescence resonance energy transfer to probe for phosphorylation of ERK1 by MEK1. The assay is carried out in low volume 96 well microtiterplates. […] After two hours, 5 nM Europium-anti-PY20 (Perkin Elmer) and 50 nM Anti-GST-Allophycocyanin (CisBio) in buffer containing 50 mM EDTA and 0.05% BSA are added and the reaction incubated for one hour in the dark. Time-resolved fluorescence is measured using a LJL-Analyst (Molecular Devices) with an excitation wavelength of 340 nm and an emission wavelength of 665 nm. The final concentration of DMSO is 2%.
(TR-FRET usually uses a lanthanide donor and a delayed reading to cut background.)

The subject of experiment [1] is human melanoma A375 cells. In words: Tumor cell proliferation assay (ATP Lite), A375. Type of experiment: cell-based. The conditions noted are these: A-375, 96 h, 4 days. The procedure: (§1) Assay 2: Tumor Cell Proliferation Assays (ATP Lite)
(§2) Murine colon C26, human melanoma A375 and MeI5 or human pancreatic MiaPaCa-2 cells were plated in 96 well Corning white plates (1500 cells/well for C26, and 2000 cells/well for A375, and MiaPaCa-2) and cultured overnight at 37° C. in 5% CO2. Inhibitors were serially diluted in 100% DMSO and subsequently added to cells to reach a final concentration of 0.25% DMSO. The cells were incubated for 4 days in the presence of test compounds in cell growth media (DMEM with 10% fetal bovine serum, 2 mM glutamine for C26, and MiaPaCa-2, and RPMI with 10% fetal bovine serum, 2 mM glutamine for A375). Cell proliferation was quantitated using the ATP lite cell proliferation kit (Packard). Columns 4-6 show the concentration of compounds required to induce 50% cell death (IC50 in μM) of […]. With “+” meaning 3 μM<IC50≦10 μM and “++” IC50≦3 μM and “n.d.” means not determined. Few compounds were also tested on human melanoma cell MeI5.

For a further experiment, the system named is Murine colon C26 cells. The experiment can be described thus: Tumor cell proliferation assay (ATP Lite), C26. Type of experiment: cell-based. The settings on record: Mus musculus, 96 h, 4 days. How it is done: as §1, §2

human MEK1, sequence (Q02750 whole entry): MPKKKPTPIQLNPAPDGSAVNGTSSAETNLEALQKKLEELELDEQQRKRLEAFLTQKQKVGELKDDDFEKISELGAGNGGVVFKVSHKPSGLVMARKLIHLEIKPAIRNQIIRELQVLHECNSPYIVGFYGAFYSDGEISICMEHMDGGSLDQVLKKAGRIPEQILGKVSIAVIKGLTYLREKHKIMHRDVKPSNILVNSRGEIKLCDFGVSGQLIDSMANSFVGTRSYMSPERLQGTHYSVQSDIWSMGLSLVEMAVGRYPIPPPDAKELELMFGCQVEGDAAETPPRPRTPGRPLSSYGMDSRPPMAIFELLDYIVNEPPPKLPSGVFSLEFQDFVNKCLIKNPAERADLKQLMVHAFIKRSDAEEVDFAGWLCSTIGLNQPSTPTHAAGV

Take `C#Cc1ccc(Nc2cnccc2C(=O)NOC[C@H](O)CO)c(Cl)c1` [Example 54, 3-(2-Chloro-4-ethynyl-phenylamino)-N-(2,3-dihydroxy-propoxy)-isonicotinamide]: the IC50 at human MEK1 lay in the range of 1000 to 10000 nM; in experiment [1], 3 to 10 µM.

On to `O=C(NCc1cc(F)cc(C(F)(F)F)c1)c1ccncc1Nc1ccc(I)cc1F` [Example 105, 3-[(2-fluoro-4-iodophenyl)amino]-N-[3-fluoro-5-(trifluoromethyl)-benzyl]isonicotinamide], for which the IC50 on human MEK1 was < 1000 nM. On to `CCC(CO)(CO)NC(=O)c1ccncc1Nc1ccc(I)cc1F` [Example 114, N-(1,1-Bis-hydroxymethyl-propyl)-3-(2-fluoro-4-iodo-phenyl-amino)-isonicotin-amide], for which the IC50 on human MEK1 is < 1000 nM. Take `O=C(NCc1ccc(F)cc1)c1ccncc1Nc1ccc(I)cc1F` [Example 108, N-(4-Fluoro-benzyl)-3-(2-fluoro-4-iodo-phenylamino)-iso-nicotinamide]: at human MEK1, the IC50 is < 1000 nM. Same read-out and setting: the same measure for `O=C(O)c1ccncc1Nc1ccc(Cl)cc1Cl` [Example 1, 3-[(2,4-Dichlorophenyl)amino]isonicotinic acid]: < 1000 nM. As to `O=C(O)c1ccncc1Nc1ccc(SC(F)(F)F)cc1` [Example 119, 3-(4-Trifluoromethylsulfanyl-phenylamino)-isonicotinic acid], the IC50 at human MEK1 lay within 1000 to 10000 nM. Same read-out and setting: the same measure for `O=C(NCc1cccc(O)c1)c1ccncc1Nc1ccc(I)cc1F` [Example 106, 3-[(2-fluoro-4-iodophenyl)amino]-N-(3-hydroxybenzyl)-isonicotinamide]: < 1000 nM; for `Cc1cc(I)ccc1Nc1cnccc1C(=O)O` [Example 3, 3-[(4-Iodo-2-methylphenyl)amino]isonicotinic acid]: < 1000 nM; for `CCOC(CCCNC(=O)c1ccncc1Nc1ccc(I)cc1F)OCC` [Example 107, N-(4,4-diethoxybutyl)-3-[(2-fluoro-4-iodophenyl)amino]-isonicotinamide]: < 1000 nM. The same measure, in the same setting: the same measure for `O=C(NCCCN1CCNCC1)c1ccncc1Nc1ccc(I)cc1F` [Example 116, 3-(2-Fluoro-4-iodo-phenylamino)-N-(3-piperazin-1-yl-propyl)-isonicotinamide]: < 1000 nM; for `COc1ccc(Nc2cnccc2C(=O)O)cc1` [Example 118, 3-(4-Methoxy-phenylamino)-isonicotinic acid]: 1000 to 10000 nM; for `O=C(O)c1ccncc1Nc1ccc(I)cc1` [Example 73, 3-(4-iodo-phenylamino)-isonicotinic acid]: < 1000 nM. For `O=C(NO)c1ccncc1Nc1ccc(I)cc1F` [Example 66, 3-[(2-fluoro-4-iodophenyl)amino]-N-hydroxyisonicotinamide], the IC50 at human MEK1 was < 1000 nM; in experiment [1] it was ≤ 3 µM. Turning to `CCONC(=O)c1ccncc1Nc1ccc(Br)cc1F` [Example 121, 3-[(4-Bromo-2-fluorophenyl)amino]-N-ethoxyisonicotinamide], the IC50 on human MEK1 is < 1000 nM. For `O=C(NOC1CCCCO1)c1ccncc1Nc1ccc(I)cc1F` (stereo not shown) [Example 84, 3-[(2-fluoro-4-iodophenyl)amino]-N-(tetrahydro-2H-pyran-2-yloxy)-isonicotin-amide], the IC50 was < 1000 nM on human MEK1, 3 to 10 µM in the experiment with Murine colon C26 cells and ≤ 3 µM in experiment [1]. On to `NC(=O)[C@H](CO)NC(=O)c1ccncc1Nc1ccc(I)cc1F` [Example 112, N-(1-(S)-Carbamoyl-2-hydroxy-ethyl)-3-(2-fluoro-4-iodo-phenylamino)-isonicotinamide], for which the IC50 at human MEK1 was < 1000 nM. For `Cc1cc(Br)ccc1Nc1cnccc1C(=O)O` [Example 2, 3-[(4-Bromo-2-methylphenyl)amino]isonicotinic acid], the IC50 at human MEK1 is < 1000 nM. Same read-out and setting: the same measure for `O=c1[nH]nc(-c2ccncc2Nc2ccc(Br)cc2F)o1` [Example 126, 5-[3-(4-Bromo-2-fluoro-phenylamino)-pyridin-4-yl]-3H-[1,3,4]oxadiazol-2-one]: 1000 to 10000 nM.

For the molecule `Cc1nccc(C(=O)O)c1Nc1ccc(I)cc1F` [Example 95, 3-(2-Fluoro-4-iodo-phenylamino)-2-methyl-isonicotinic acid], on human MEK1, the IC50 was < 1000 nM. Regarding `CN(C)c1ccc(-c2cc(C(=O)O)c(Nc3ccc(I)cc3F)cn2)cc1` [Example 57, 2-[4-(dimethylamino)phenyl]-5-[(2-fluoro-4-iodophenyl)amino]-isonicotinic acid], at human MEK1, the IC50 is 1000 to 10000 nM. `O=C(NC1CCc2ccccc21)c1ccncc1Nc1ccc(I)cc1F` (stereo not shown) [Example 59, N-(2,3-dihydro-1H-inden-1-yl)-3-[(2-fluoro-4-iodophenyl)amino]-isonicotinamide]: the IC50 at human MEK1 lay in the range of 1000 to 10000 nM. With `CC(C)CONC(=O)c1ccncc1Nc1ccc(I)cc1Cl` [Example 78], the results for the IC50 (at human MEK1; with Murine colon C26 cells; in experiment [1]) were < 1000 nM, 3 to 10 µM and ≤ 3 µM, respectively. `O=C(N[C@H]1CCCC[C@@H]1O)c1ccncc1Nc1ccc(I)cc1F` (relative stereo) [Example 113, 3-(2-Fluoro-4-iodo-phenylamino)-N-(trans-2-hydroxy-cyclohexyl)-isonicotinamide]: the IC50 at human MEK1 is < 1000 nM. As for `CC(C)C(C)NC(=O)c1ccncc1Nc1ccc(I)cc1F` (stereo not shown) [Example 62, N-(1,2-dimethylpropyl)-3-[(2-fluoro-4-iodophenyl)amino]-isonicotinamide], the IC50 at human MEK1 is < 1000 nM; with Murine colon C26 cells it was 3 to 10 µM; in experiment [1], ≤ 3 µM. `CCONC(=O)c1cc[n+]([O-])cc1Nc1ccc(Br)cc1C` [Example 6, 3-[(4-Bromo-2-methylphenyl)amino]-N-ethoxyisonicotinamide 1-oxide]: on human MEK1, the IC50 was 1000 to 10000 nM. As to `CC1(C)OC[C@H](CONC(=O)c2ccnc(Cl)c2Nc2ccc(I)cc2F)O1` [Example 38, 2-Chloro-N-{[(4R)-2,2-dimethyl-1,3-dioxolan-4-yl]methoxy}-3-(2-fluoro-4-iodo-phenylamino)-isonicotinamide], the IC50 on human MEK1 is 1000 to 10000 nM. Regarding `Cc1cc(C(=O)O)c(Nc2ccc(I)cc2F)cn1` [Example 111, 5-[(2-fluoro-4-iodophenyl)amino]-2-methylisonicotinic acid], the IC50 at human MEK1 is < 1000 nM. Take `O=C(NCC(F)(F)F)c1ccncc1Nc1ccc(I)cc1F` [Example 109, 3-(2-Fluoro-4-iodo-phenylamino)-N-(2,2,2-trifluoro-ethyl)-isonicotinamide]: at human MEK1, the IC50 was < 1000 nM. Take `CN(CCO)C(=O)c1ccncc1Nc1ccc(I)cc1F` [Example 37]: the IC50 at human MEK1 was < 1000 nM. Consider `CC1(C)OC[C@H](CONC(=O)c2cc[n+]([O-])cc2Nc2ccc(I)cc2F)O1` [Example 89, N-(2,2-Dimethyl-[1,3]dioxolan-4-ylmethoxy)-3-(2-fluoro-4-iodo-phenylamino)-1-oxy-isonicotinamide], for which, on human MEK1, the IC50 lay within 1000 to 10000 nM. With `O=C(NC1(CO)CCCC1)c1ccncc1Nc1ccc(I)cc1F` [Example 110, 3-(2-Fluoro-4-iodo-phenylamino)-N-(1-hydroxymethyl-cyclo-pentyl)-isonicotinamide], the IC50 at human MEK1 is < 1000 nM. `O=C(NOCc1c(F)c(F)c(F)c(F)c1F)c1ccncc1Nc1ccc(I)cc1F` [Example 103, 3-[(2-fluoro-4-iodophenyl)amino]-N-[(pentafluorobenzyl)oxy]-isonicotinamide]: the IC50 at human MEK1 is < 1000 nM. With `O=C(NCc1cccc(I)c1)c1ccncc1Nc1ccc(I)cc1F` [Example 94, 3-[(2-fluoro-4-iodophenyl)amino]-N-(3-iodobenzyl)isonicotin-amide], the IC50 at human MEK1 is < 1000 nM; in experiment [1], 3 to 10 µM. Regarding `COc1ccc(-c2cc(C(=O)O)c(Nc3ccc(I)cc3F)cn2)cc1` [Example 52, 5-[(2-fluoro-4-iodophenyl)amino]-2-(4-methoxyphenyl)isonicotinic acid], the IC50 on human MEK1 was 1000 to 10000 nM.

Regarding `COc1cccc(NC(=O)c2ccncc2Nc2ccc(I)cc2F)c1` [Example 104, 3-[(2-fluoro-4-iodophenyl)amino]-N-(3-methoxyphenyl)-isonicotinamide], the IC50 on human MEK1 is < 1000 nM. As for `O=C(O)c1ccnc(Cl)c1Nc1ccc(Br)cc1F` [Example 125, 3-(4-Bromo-2-fluoro-phenylamino)-2-chloro-isonicotinic acid], on human MEK1, the IC50 is < 1000 nM. On to `O=C(NC1CCCCC1)c1ccncc1Nc1ccc(I)cc1F` [Example 61, N-cyclohexyl-3-[(2-fluoro-4-iodophenyl)amino]isonicotinamide], for which the IC50 at human MEK1 is < 1000 nM; in experiment [1], 3 to 10 µM. On to `CC1(C)OC[C@@H](CONC(=O)c2ccncc2Nc2ccc(I)cc2F)O1` [Example 63, N-{[(4S)-2,2-dimethyl-1,3-dioxolan-4-yl]methoxy}-3-[(2-fluoro-4-iodophenyl)amino]isonicotinamide], for which the IC50 on human MEK1 is < 1000 nM; in experiment [1] it was ≤ 3 µM.

For the origin of these results see patent US8524911B2, “3-arylamino pyridine derivatives” (Merck Serono SA, priority 2004, dated 2013).
